Patent publication US11020394B2, “Compositions and methods for treating inflammatory bowel disease using a combination therapy of small molecule inhibitors of C—C chemokine receptor type 9 (CCR9) and anti-α4β7 integrin blocking antibodies” (ChemoCentryx, Inc., priority 2014, dated 2021)

Test system: in vitro differentiated human CCR9+α4β7+ T cells
Assay: Static binding (adhesion) assay of in vitro differentiated T cells on MAdCAM-1-Fc coated plates
Format: cell-based
Conditions: 1 μM CCX507, with hCCL25, MAdCAM-1-Fc coated plates, FIG. 1B
Protocol: Adhesion assays were performed as follows. Human lymphocytes were isolated from total PBMCs and activated with α-CD3ε/α-CD28 (1 μg/mL; R&D Systems) in the presence of 1 μM retinoic acid (Sigma) and 1 ng/mL human IL12 (R&D Systems). In vitro activated T cells were further expanded for 5 days in the presence of 1 μM retinoic acid (RA) and 1 ng/mL human IL12. The expanded cells were stained with an anti CCR9 APC conjugated antibody (Cat. No. 248621; R&D Systems) and a conjugated anti-α4β7 integrin antibody (Act-1). The stained cells were analyzed by flow cytometry. Expression of CCR9 and α4β7 integrin in the expanded T cells was depicted as a 2-parameter scatterplot in FIG. 1A.
In vitro activated T cells were added to 96-well plate coated overnight with 0.3 μg/mL MAdCAM-1-Fc fusion protein (R&D Systems) in the presence of the following conditions: DMSO only, 500 ng human CCL25 (hCCL25; a CCR9 ligand) only, 1 μM CCX507 (a CCR9 small molecule inhibitor) only, or 500 ng hCCL25 and 1 μM CCX507. Adherent cells were quantified using CyQUANT® Cell Proliferation Assays (Thermo Fisher).

With `Cc1cc(NS(=O)(=O)c2ccc(C(C)(C)C)c(F)c2)n(-c2ccc(N)c3ncccc23)n1` [CCX507] the “binding of RA-differentiated human T cells to MAdCAM-1 (adherent cells quantified using CyQUANT, RFU)” value was “limits the binding of RA-differentiated human T cells to MAdCAM-1”.
